Source: patent US10376557B2, “Peptide fragments for inducing synthesis of extracellular matrix proteins” (HELIX BIOMEDIX, INC., priority 2006, dated 2019)
Ends that are not written are not given here.

Test system: Human dermal fibroblasts
Experiment: SIRCOL collagen assay: soluble collagen released by dermal fibroblasts incubated with peptides
Format: cell-based
Conditions: for Collagen (μg) / Collagen: * = may not be significant, detection limit 2.5 μg; for Significant release of collagen at 24 h and 48 h: 25 μg/mL considered significant
Procedure: Several sequences identified in Examples 1 and 2 were synthesized using standard peptide chemistry and assayed for the stimulation of collagen from dermal fibroblasts. The synthesized peptides were amidated at the C-terminus, which rendered the tetrapeptides less susceptible to protease degradation and increased their solubility compared to the free acid forms. Human dermal fibroblasts were incubated in 96-well plates at 37° C. and 5% CO2 for 24 and 48 hours in 150 μL complete cell culture media (Cascade Biologics, Portland, Oreg.; Cat. No. M-106-500), supplemented with Low Serum Growth Supplement (Cascade Biologics, Portland, Oreg.; Cat. No. […] Each well was seeded with 10,000 cells. Following the incubation, 100-μL medium samples were recovered from each well and assayed for collagen production
The assays were performed by Tebu-bio Laboratories (France) using the SIRCOL™ Collagen Assay Kit (Biocolor Assays, UK) following the manufacturer's protocol. The SIRCOL™ Collagen Assay is a quantitative dye-binding method designed for the analysis of soluble collagens released into culture medium by mammalian cells during in vitro culture. The collagen of the tested samples binds to the anionic SIRCOL™ dye. The collagen-dye complexes precipitate out of solution and are pelleted by centrifugation. The recovered collagen-dye pellet was dissolved in an alkaline solution prior to absorbance measurements. Duplicate measurements were taken at the 24 and 48 hour times from two separate samples. The four measurements for each sample were averaged. The absorbance of reagent blanks, collagen standards, and samples were measured at 560 nm. The reagent blank absorbance was subtracted from the absorbance from each sample at 24 and 48 hours.
Two separate data sets were used to generate two collagen standard calibration curves. The first calibration curve was generated for purposes of calculating the quantity of collagen in samples H6 (combination of SEQ ID NOs:1-4), […] (SEQ ID NOs:1-8, respectively) and H15 (combination of SEQ ID NOs:5-8). The second calibration curve was generated for calculating the quantity of collagen in samples H16 (SEQ ID NO:9), H21-23 (SEQ ID NOs:10-12, respectively), H25-26 (SEQ ID NOs:13-14, respectively), or H29-30 (SEQ ID NOs:15-16, respectively), H32 (SEQ ID NO:17), H33 (combination of SEQ ID NOs:9-12), H34 (combination of SEQ ID NOs:11-14), H35 (combination of SEQ ID NOs:13-16), H36 (combination of SEQ ID NOs:1, 6, 5, 8), H37 (SEQ ID NO: 17) and H38 (SEQ ID NO:8) from the absorbance measurements was created by plotting the Abs560nm of the known collagen standards versus the respective concentrations of the collagen standards (in micrograms) each time a series of assays were performed. With respect to each data set, the same calibration curve was used for samples taken at the 24 and 48 hour times (Tables 2A and 2B). Accordingly, different standard curves were prepared immediately prior to performing each series of assays.
A linear regression was performed from plotting the Abs560nm values versus concentrations of the respective collagen standards using MICROSOFT EXCEL™. […] As the results were identical, only the 24-hour time period was used for the second series calibration curves. The formula of the line obtained on assay date 1 and assay date 2 of the second series of samples was y=0.0178x and y=0.0162x, respectively. The peptide LL-37 (SEQ ID NO:18) was used as a positive control as it has been widely reported to have an impact upon wound healing in man (Heilborn et al., The Cathelicidin Anti-Microbial Peptide LL-37 Is Involved In The Re-Epithelialization Of Human Skin Wounds And Is Lacking In Chronic Ulcer Epithelium, J. Invest. Dermato. 120:379-89 (2003). The assay detection limit defined by the manufacturer is 2.5 μg. […]

[1] = 24 hours, peptide 50 μg/mL, 100 μL medium sample
[2] = 48 hours, peptide 50 μg/mL, 100 μL medium sample
[3] = check mark = yes, peptide 50 μg/mL
[4] = 24 hours, peptide 50 μg/mL, second series
[5] = 48 hours, peptide 50 μg/mL, second series
[6] = peptide 0.3 μg/mL (per Table 5)
[7] = 24 hours, peptide 0.3 μg/mL, second series
[8] = 48 hours, peptide 0.3 μg/mL, second series

| Substance | Released collagen (μg/mL) 24 h (peptide 50 μg/mL (per Table 5)) | Average (A560 nm) (24 hours, peptide 50 μg/mL) | Average minus blank (A560 nm) (24 hours, peptide 50 μg/mL) | Collagen (μg) [1] | Collagen produced (μg/mL) 24 hrs ([Peptide] 50 μg/mL) | Released collagen (μg/mL) 48 h (peptide 50 μg/mL (per Table 5)) | Average (A560 nm) (48 hours, peptide 50 μg/mL) | Average minus blank (A560 nm) (48 hours, peptide 50 μg/mL) | Collagen [2] | Collagen produced (μg/mL) 48 hrs ([Peptide] 50 μg/mL) | Increase in collagen release at 48 h v. 24 h [3] | Average (A560 nm) [4] | Average minus blank (A560 nm) [4] | Average (A560 nm) [5] | Average minus blank (A560 nm) [5] | Collagen (μg) [5] | further results |
| --- | --- | --- | --- | --- | --- | --- | --- | --- | --- | --- | --- | --- | --- | --- | --- | --- | --- |
| GAGP (Synthetic Peptide H12) | 2 µg/mL | 0.08 | 0.00 | 0.2* μg | 2 µg/mL | 37 µg/mL | 0.17 | 0.05 | 3.7 µg | 37 µg/mL | ✓ | – | – | – | – | – | collagen production at 48 hours (in words) (48 hours): good results |
| GPPG (Synthetic Peptide H13) | 18 µg/mL | 0.10 | 0.02 | 1.8* μg | 18 µg/mL | 2 µg/mL | 0.12 | 0.00 | – | 2 µg/mL | – | – | – | – | – | – | Collagen (μg) [2]: 0.2* μg |
| PQGP (PQGP-NH2) [H29] | 4 µg/mL | – | – | – | 4 µg/mL | 19 µg/mL | – | – | – | 19 µg/mL | ✓ | 0.09 | 0.01 | 0.09 | 0.03 | 1.9* μg | Collagen (μg) [4]: 0.4* μg |
| PEGP (PEGP-NH2) [H7] | 0 µg/mL | 0.08 | 0.00 | 0.0* μg | 0 µg/mL | 54 µg/mL | 0.19 | 0.07 | 5.4 µg | 54 µg/mL | ✓ | – | – | – | – | – | – |
| GEKG (Synthetic Peptide H14) [H14 = tested at 50 μg/mL, H38 = same peptide tested at 0.3 μg/mL] | 30 µg/mL | 0.12 | 0.04 | – | 30 µg/mL | 26 µg/mL | 0.15 | 0.03 | 2.6 µg | 26 µg/mL | – | – | – | – | – | – | time for which collagen production was substantially maintained: at least 48 hours; collagen stimulation at the lower concentration (in words) (0.3 μg/mL versus 50 μg/mL): not diminished; collagen production compared to KTTKS (24 and 48 hours): stimulated more collagen production than the KTTKS; Released collagen (μg/mL) 24 h [6]: 29 µg/mL; amount of collagen induced compared to LL37 (24 hours): about the same amount of collagen as LL37; Average (A560 nm) [7]: 0.13; Average minus blank (A560 nm) [7]: 0.05; Collagen [7]: 2.9 µg; Collagen [1]: 3.0 µg; Collagen produced (μg/mL) 24 hrs ([Peptide] 0.3 μg/mL): 29 µg/mL; Released collagen (μg/mL) 48 h [6]: 28 µg/mL; Average (A560 nm) [8]: 0.11; Average minus blank (A560 nm) [8]: 0.05; Collagen [8]: 2.8 µg; Collagen produced (μg/mL) 48 hrs ([Peptide] 0.3 μg/mL): 28 µg/mL; Significant release of collagen at 24 h and 48 h (check mark = yes, peptide 0.3 μg/mL): ✓; Significant release of collagen at 24 h and 48 h [3]: ✓; maximal stimulating concentration (collagen production): ≤ 0.3 µg/mL |
| PEKP (PEKP-NH2) [H16] | 31 µg/mL | – | – | – | 31 µg/mL | 3 µg/mL | – | – | – | 3 µg/mL | – | 0.14 | 0.06 | 0.06 | 0.00 | 0.3* μg | Collagen [4]: 3.1 µg; Decrease in collagen release at 48 h v. 24 h [3]: ✓ |
